Measurements reported in US20220132846A1, “1-PYRIDYL-PYRAZOLYL AMIDE COMPOUNDS AND PREPARATION AND USES THEREOF” (HUNAN RESEARCH INSTITUTE OF CHEMICAL INDUSTRY CO., LTD., priority 2019, published 2022).
Like-named read-outs stand apart in the source and are kept apart here.

Columns and labels:
Type in all cases: in vivo
Aphis fabae = assay: Test against aphid, leaf dip method (Aphis fabae); settings: foliar; for mortality at 12.5 µg/mL / mortality at 50 µg/mL / mortality at 200 µg/mL / mortality at 500 µg/mL: read-out: Activity (mortality) level against Aphis fabae; for LC50: read-out: LC50 against Aphis fabae
Outline: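 Horsebean seedlings carrying at least twenty 3-day-old Aphis fabae dipped 5 seconds in compound solutions (DMF, diluted in 0.2% aqueous Tween 80), three replicates with solvent blank. Live and dead insects counted after 24 hours.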

[1] = tested on: Diamondback moth (Plutella xylostella (Linnaeus)); assay: Test against diamondback moth, leaf disc dip; settings: after 72 hours; for LC50: Plutella xylostella, foliar, read-out: Lethal medium concentration LC50 against diamondback moth; for Activity against diamondback moth (in words): second-instar larvae
Method: (§1) The test compound was dissolved in an appropriate solvent such as N,N-dimethylformamide, and then diluted with 0.2% aqueous solution of Tween 80 to the desired concentration, Those without the test compounds were set as blank controls, the treatments were replicated 3 times. The cabbage leaves were perforated to get 18 mm diameter leaf discs by a hole puncher, 5 leaf discs were dipped in the test solution for 10 seconds and then put into a Petri dish (diameter 90 mm) padded with moisturizing filter paper, after air-drying, the leaf discs were infested with no less than ten second-instar larvae of test insects which were starved for 4 hours, and then the dish was covered and placed in a chamber for culture. After 72 hours, the number of dead insects was investigated, the mortality was calculated, and the regression equation, correlation coefficient (r) and the median lethal concentration (LC50) were obtained using Probit analysis method.

[2] = tested on: Spodoptera litura (Fabricius); assay: Test against Spodoptera litura, leaf disc dip; settings: after 72 hours; for Median lethal concentration LC50 against Spodoptera litura, compared with D1: same conditions; for Activity against Spodoptera litura (in words): second-instar larvae
Method: as §1

[3] = tested on: Armyworm (Mythimna separata (Walker)); assay: Test against armyworm, Potter tower method; settings: for Activity against armyworm: 1.25 mg/L; for mortality at 12.5 µg/mL / mortality at 50 µg/mL / mortality at 500 µg/mL: Mythimna separata, read-out: Activity (mortality) level against armyworm; for Activity against armyworm, further screening (in words): compared with chlorantraniliprole (D1)
Outline: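 Third-instar larvae, ten per dish on corn leaf fragments, were sprayed in a Potter tower with 1 mL of compound in DMF diluted in 0.2% Tween 80, in triplicate. Mortality was scored after 72 h and reported as mean mortality against a solvent blank.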

[4] = 12.5 mg/L, third-instar larvae, after 72 hours
[5] = 50 mg/L, third-instar larvae, after 72 hours
[6] = 500 mg/L, third-instar larvae, after 72 hours

| Compound | mortality at 12.5 µg/mL (Aphis fabae; 12.5 mg/L, after 24 hours) | mortality at 50 µg/mL (Aphis fabae; 50 mg/L, after 24 hours) | mortality at 200 µg/mL (Aphis fabae; 200 mg/L, after 24 hours) | mortality at 500 µg/mL (Aphis fabae; 500 mg/L, after 24 hours) | LC50 (Aphis fabae; further test) | Activity against diamondback moth (in words) [1] | Median lethal concentration LC50 against Spodoptera litura, compared with D1 [2] | Activity against Spodoptera litura (in words) [2] | mortality at 12.5 µg/mL [3, 4] | mortality at 50 µg/mL [3, 5] | mortality at 500 µg/mL [3, 6] | Activity against armyworm, further screening (in words) [3] | other results |
| --- | --- | --- | --- | --- | --- | --- | --- | --- | --- | --- | --- | --- | --- |
| CNC(=O)c1cc(Cl)cc(Cl)c1N(C)C(=O)c1cc(Br)nn1-c1ncccc1Cl [Compound 1, N-[2,4-dichloro-6-[(methylamino)carbonyl]phenyl]-N-methyl-1-(3-chloro-2-pyridinyl)-3-bromo-1H-pyrazole-5-carboxamide] | 90 to 100% | 90 to 100% | 90 to 100% | 90 to 100% | < 1 µg/mL | high activity at very low concentration | lower than that of chlorantraniliprole (D1) | high activity at very low concentration | 90 to 100% | 90 to 100% | 90 to 100% | excellent activity | LC50 [1]: < 1 µg/mL; Activity against armyworm [3]: 75% |
| CCNC(=O)c1cc(Cl)cc(Cl)c1N(C)C(=O)c1cc(Br)nn1-c1ncccc1Cl [Compound 2, N-[2,4-dichloro-6-[(ethylamino)carbonyl]phenyl]-N-methyl-1-(3-chloro-2-pyridinyl)-3-bromo-1H-pyrazole-5-carboxamide] | 90 to 100% | 90 to 100% | 90 to 100% | 90 to 100% | < 1 µg/mL | high activity at very low concentration | lower than that of chlorantraniliprole (D1) | high activity at very low concentration | 90 to 100% | 90 to 100% | 90 to 100% | excellent activity | LC50 [1]: < 1 µg/mL |
| CCN(C(=O)c1cc(Br)nn1-c1ncccc1Cl)c1c(Cl)cc(Cl)cc1C(=O)NC [Compound 9, N-[2,4-dichloro-6-[(methylamino)carbonyl]phenyl]-N-ethyl-1-(3-chloro-2-pyridinyl)-3-bromo-1H-pyrazole-5-carboxamide] | 90 to 100% | 90 to 100% | 90 to 100% | 90 to 100% |  | high activity at very low concentration |  | high activity at very low concentration |  | 90 to 100% | 90 to 100% | excellent activity |  |
| CCNC(=O)c1cc(Cl)cc(Cl)c1N(CC)C(=O)c1cc(Br)nn1-c1ncccc1Cl [Compound 10, N-[2,4-dichloro-6-[(ethylamino)carbonyl]phenyl]-N-ethyl-1-(3-chloro-2-pyridinyl)-3-bromo-1H-pyrazole-5-carboxamide] | 90 to 100% | 90 to 100% | 90 to 100% | 90 to 100% | < 1 µg/mL | high activity at very low concentration | lower than that of chlorantraniliprole (D1) | high activity at very low concentration | 90 to 100% | 90 to 100% | 90 to 100% | excellent activity |  |
| CN(C)C(=O)c1cc(Cl)cc(Cl)c1N(C)C(=O)c1cc(Br)nn1-c1ncccc1Cl [Compound 11, N-[2,4-dichloro-6-[(dimethylamino)carbonyl]phenyl]-N-methyl-1-(3-chloro-2-pyridinyl)-3-bromo-1H-pyrazole-5-carboxamide] | 90 to 100% | 90 to 100% | 90 to 100% | 90 to 100% | < 1 µg/mL | high activity at very low concentration |  | high activity at very low concentration | 90 to 100% | 90 to 100% | 90 to 100% | excellent activity | LC50 [1]: < 1 µg/mL |
| CCN(C)C(=O)c1cc(Cl)cc(Cl)c1N(C)C(=O)c1cc(Br)nn1-c1ncccc1Cl [Compound 12, N-[2,4-dichloro-6-[(methyl(ethyl)amino)carbonyl]phenyl]-N-methyl-1-(3-chloro-2-pyridinyl)-3-bromo-1H-pyrazole-5-carboxamide] | 90 to 100% | 90 to 100% | 90 to 100% | 90 to 100% |  | high activity at very low concentration |  | high activity at very low concentration | 90 to 100% | 90 to 100% | 90 to 100% | excellent activity |  |
| CCN(CC)C(=O)c1cc(Cl)cc(Cl)c1N(C)C(=O)c1cc(Br)nn1-c1ncccc1Cl [Compound 15, N-[2,4-dichloro-6-[(diethylamino)carbonyl]phenyl]-N-methyl-1-(3-chloro-2-pyridinyl)-3-bromo-1H-pyrazole-5-carboxamide] | 90 to 100% | 90 to 100% | 90 to 100% | 90 to 100% | < 1 µg/mL | high activity at very low concentration | lower than that of chlorantraniliprole (D1) | high activity at very low concentration | 90 to 100% | 90 to 100% | 90 to 100% | excellent activity |  |
| CCN(C)C(=O)c1cc(Cl)cc(Br)c1N(C)C(=O)c1cc(Br)nn1-c1ncccc1Cl [Compound 32, N-[2-bromo-4-chloro-6-[(methyl(ethyl)amino)carbonyl]phenyl]-N-methyl-1-(3-chloro-2-pyridinyl)-3-bromo-1H-pyrazole-5-carboxamide] | 90 to 100% | 90 to 100% | 90 to 100% | 90 to 100% |  | high activity at very low concentration |  | high activity at very low concentration | 90 to 100% | 90 to 100% | 90 to 100% | excellent activity |  |
| CCN(CC)C(=O)c1cc(Br)cc(C)c1N(CC)C(=O)c1cc(Br)nn1-c1ncccc1Cl [Compound 49, N-[2-methyl-4-bromo-6-[(diethylamino)carbonyl]phenyl]-N-ethyl-1-(3-chloro-2-pyridinyl)-3-bromo-1H-pyrazole-5-carboxamide] |  |  | 90 to 100% | 90 to 100% |  |  |  |  |  | 90 to 100% | 90 to 100% |  |  |
| CNC(=O)c1cc(Cl)cc(C)c1NC(=O)c1cc(Br)nn1-c1ncccc1Cl [Compound D1, chlorantraniliprole, reference compound] |  |  |  |  |  | high activity at very low concentration |  | high activity at very low concentration |  |  |  |  | mortality at 50 µg/mL (Aphis fabae; 24 h): 0 to 50%; mortality at 500 µg/mL (Aphis fabae; 24 h): 90 to 100%; Activity against armyworm [3]: less than 50%; mortality at 12.5 µg/mL ([3]; 72 h): 90 to 100%; mortality at 50 µg/mL ([3]; 72 h): 90 to 100%; mortality at 500 µg/mL ([3]; 72 h): 90 to 100% |
| CNC(=O)c1cc(C#N)cc(C)c1NC(=O)c1cc(Br)nn1-c1ncccc1Cl [Compound D2, cyantraniliprole, reference compound] |  |  |  |  |  |  |  |  |  |  |  |  | mortality at 12.5 µg/mL (Aphis fabae; 24 h): 90 to 100%; mortality at 50 µg/mL (Aphis fabae; 24 h): 90 to 100%; mortality at 200 µg/mL (Aphis fabae; 24 h): 90 to 100%; mortality at 500 µg/mL (Aphis fabae; 24 h): 90 to 100%; LC50 (Aphis fabae): > 1 µg/mL; mortality at 12.5 µg/mL ([3]; 72 h): 90 to 100%; mortality at 50 µg/mL ([3]; 72 h): 90 to 100%; mortality at 500 µg/mL ([3]; 72 h): 90 to 100% |
| CC(NC(=O)c1cc(Cl)cc(Br)c1NC(=O)c1cc(Br)nn1-c1ncccc1Cl)C1CC1 (stereo not drawn) [Compound D3, cyclaniliprole, reference compound] |  |  |  |  |  |  |  |  |  |  |  |  | mortality at 12.5 µg/mL (Aphis fabae; 24 h): 90 to 100%; mortality at 50 µg/mL (Aphis fabae; 24 h): 90 to 100%; mortality at 200 µg/mL (Aphis fabae; 24 h): 90 to 100%; mortality at 500 µg/mL (Aphis fabae; 24 h): 90 to 100%; LC50 (Aphis fabae): > 1 µg/mL; mortality at 12.5 µg/mL ([3]; 72 h): 70 to 90%; mortality at 50 µg/mL ([3]; 72 h): 90 to 100%; mortality at 500 µg/mL ([3]; 72 h): 90 to 100% |
